Source: US9296728B2, “Therapeutic compounds” (Regents of the University of Minnesota, priority 2012, dated 2016)
Values joined by “and” are separate entries in the source; they are usually repeats but may differ in a detail not shown here. Equal values may be shown once. Read-outs that look alike come from different tables or passages of the source.

Experiment: Pharmacokinetic study of Compound 20 in ICR mice
Format: in vivo
Conditions: for CLz/F / t1/2Z / concentration at 0 h / concentration at 0.083 h / concentration at 0.25 h / concentration at 0.5 h / concentration at 1 h / concentration at 2 h / concentration at 4 h / concentration at 6 h / concentration at 8 h / concentration at 24 h / AUC(0-inf) / AUC(0-t) / Cmax / Tmax / Vd/F: plasma; for CLz/F / t1/2Z / AUC(0-inf) / AUC(0-t) / Cmax / Tmax / Vd/F: mean; for concentration at 0 h / concentration at 0.083 h / concentration at 0.25 h / concentration at 0.5 h / concentration at 1 h / concentration at 2 h / concentration at 4 h / concentration at 6 h / concentration at 8 h / concentration at 24 h / AUC(0-inf) / AUC(0-t) / Cmax / Tmax / Vd/F: male, mouse; for concentration at 0 h / concentration at 0.083 h / concentration at 0.25 h / concentration at 0.5 h / concentration at 1 h / concentration at 2 h / concentration at 4 h / concentration at 6 h / concentration at 8 h / concentration at 24 h: ICR, 100 mg/kg; for concentration at 6 h / concentration at 24 h: n = 3; for Vd/F: read-out: Vz/F
Description: 60 male ICR mice were split into two groups of 30. In each group the mice were prescribed Compound 20 at a dosage of 100 mg/kg. This dose was administered orally in group 1 and intraperitoneally in group 2. Each group of 30 mice was subdivided into groups of 3 mice. Blood samples were taken through orbital sinus method at 0, 0.083, 0.25, 0.5, 1, 2, 4, 6, 8 and 24 hours after administering Compound 20 and taken into tubes with anticoagulant at room temperature at least 30 minutes prior to centrifugation, then centrifuged at 10000 rpm for 5 minutes at 4° C. to separate plasma from the blood samples. Following centrifugation, the resulting serum was transferred to clean tubes and stored frozen at −80° C. Immediately following the blood samples, the brain tissue samples of mice were removed and stored frozen at −80° C.
A 20% brain homogenate was prepared by weighing brain tissue sample and adding, corresponding volume of saline into the manual homogenator. The dilution factor was 5 (w/v=1 g: 4 mL). The brain tissue sample was grinded slowly and repeatedly until it has become homogenous.
Plasma and Brain samples were centrifuged at 15777×g for 5 minutes, and 180 ul of supernatant was placed in a 96-well assay plate. To each well, 200 ul of a 50% ACN/H2O was added and the plates were shake-mixed for 3 minutes. 5 ul aliquots of each well were then analyzed using LC-MS/MS.
The standard non-compartmental model was used to generate the pharmacokinetic parameters: Cmax, Tmax, t1/2, AUC0->last, AUC0->inf, CL/F, and Vz/F. The maximum plasma concentration, Cmax, and its corresponding time, Tmax were directly recorded. Elimination rate constant kel was determined by linear regression of the terminal points of the semi-log plot of concentration against time. Elimination half-life was calculated by the formula; t12=0.693/kel. The Area Under the curve value from time 0 to 24 hours was defined as AUCt->last and calculated using the linear trapezoidal rule.

COc1cc(N(c2ccccc2)c2ccccc2)ccc1/C=C(\C#N)C(=O)O [Compound 20]
Plasma Concentration, individual animals (1#, 2#, 3#) (100 mg/kg i.p., 0 h): 0 ng/mL
Plasma Concentration, individual animals (1#, 2#, 3#) (100 mg/kg i.p., 0.083 h): 18800 ng/mL and 33300 ng/mL and 40400 ng/mL
Plasma Concentration, individual animals (1#, 2#, 3#) (100 mg/kg i.p., 0.25 h): 78300 ng/mL and 29400 ng/mL and 60100 ng/mL
Plasma Concentration, individual animals (1#, 2#, 3#) (100 mg/kg i.p., 0.5 h): 30400 ng/mL and 30200 ng/mL
Plasma Concentration, individual animals (1#, 2#, 3#) (100 mg/kg i.p., 1 h): 45600 ng/mL and 26900 ng/mL
Plasma Concentration, individual animals (1#, 2#, 3#) (100 mg/kg i.p., 2 h): 27800 ng/mL and 38900 ng/mL
Plasma Concentration, individual animals (1#, 2#, 3#) (100 mg/kg i.p., 4 h): 24000 ng/mL and 26400 ng/mL
Plasma Concentration, individual animals (1#, 2#, 3#) (100 mg/kg i.p., 6 h): 14200 ng/mL and 3980 ng/mL and 5360 ng/mL
Plasma Concentration, individual animals (1#, 2#, 3#) (100 mg/kg i.p., 8 h): 3160 ng/mL and 2590 ng/mL
Plasma Concentration, individual animals (1#, 2#, 3#) (100 mg/kg i.p., 24 h): 41.8 ng/mL and 249 ng/mL and 70.9 ng/mL
CLz/F (100 mg/kg i.p.): 0.499 L/h/kg
t1/2Z (100 mg/kg i.p.): 3.19 h
pharmacokinetics parameters (overall assessment) (100 mg/kg p.o. and i.p.): satisfactory
Plasma Concentration, individual animals (1#, 2#, 3#) (100 mg/kg p.o., 0 h): 0 ng/mL
Plasma Concentration, individual animals (1#, 2#, 3#) (100 mg/kg p.o., 0.083 h): 4050 ng/mL and 4040 ng/mL
Plasma Concentration, individual animals (1#, 2#, 3#) (100 mg/kg p.o., 0.25 h): 11300 ng/mL and 6400 ng/mL
Plasma Concentration, individual animals (1#, 2#, 3#) (100 mg/kg p.o., 0.5 h): 19100 ng/mL and 20700 ng/mL and 6580 ng/mL
Plasma Concentration, individual animals (1#, 2#, 3#) (100 mg/kg p.o., 1 h): 3610 ng/mL and 4830 ng/mL and 12700 ng/mL
Plasma Concentration, individual animals (1#, 2#, 3#) (100 mg/kg p.o., 2 h): 3270 ng/mL and 1380 ng/mL and 4790 ng/mL
Plasma Concentration, individual animals (1#, 2#, 3#) (100 mg/kg p.o., 4 h): 2880 ng/mL and 5160 ng/mL and 1240 ng/mL
Plasma Concentration, individual animals (1#, 2#, 3#) (100 mg/kg p.o., 6 h): 1470 ng/mL and 2230 ng/mL and 3720 ng/mL
Plasma Concentration, individual animals (1#, 2#, 3#) (100 mg/kg p.o., 8 h): 5780 ng/mL and 2370 ng/mL and 3880 ng/mL
Plasma Concentration, individual animals (1#, 2#, 3#) (100 mg/kg p.o., 24 h): 111 ng/mL and 19.3 ng/mL and 12.8 ng/mL
CLz/F (100 mg/kg p.o.): 1.56 L/h/kg
t1/2Z (100 mg/kg p.o.): 3.03 h
concentration at 0 h (ip, 100 mg/kg i.p., 0 h, n = 3, read-out: Plasma Concentration, Mean): 0 ng/mL
concentration at 0 h (ip, 100 mg/kg i.p., 0 h, read-out: Plasma Concentration, individual animals (1#, 2#, 3#)): 0 ng/mL
concentration at 0.083 h (ip, 100 mg/kg i.p., 0.083 h, n = 3, read-out: Plasma Concentration, Mean): 30800 ng/mL
concentration at 0.25 h (ip, 100 mg/kg i.p., 0.25 h, n = 3, read-out: Plasma Concentration, Mean): 55900 ng/mL
concentration at 0.5 h (ip, 100 mg/kg i.p., 0.5 h, n = 3, read-out: Plasma Concentration, Mean): 37300 ng/mL
concentration at 0.5 h (ip, 100 mg/kg i.p., 0.5 h, read-out: Plasma Concentration, individual animals (1#, 2#, 3#)): 51400 ng/mL
concentration at 1 h (ip, 100 mg/kg i.p., 1 h, n = 3, read-out: Plasma Concentration, Mean): 34800 ng/mL
concentration at 1 h (ip, 100 mg/kg i.p., 1 h, read-out: Plasma Concentration, individual animals (1#, 2#, 3#)): 31800 ng/mL
concentration at 2 h (ip, 100 mg/kg i.p., 2 h, n = 3, read-out: Plasma Concentration, Mean): 35200 ng/mL
concentration at 2 h (ip, 100 mg/kg i.p., 2 h, read-out: Plasma Concentration, individual animals (1#, 2#, 3#)): 38800 ng/mL
concentration at 4 h (ip, 100 mg/kg i.p., 4 h, n = 3, read-out: Plasma Concentration, Mean): 25100 ng/mL
concentration at 4 h (ip, 100 mg/kg i.p., 4 h, read-out: Plasma Concentration, individual animals (1#, 2#, 3#)): 25000 ng/mL
concentration at 6 h (ip, 100 mg/kg i.p., 6 h): 7850 ng/mL
concentration at 8 h (ip, 100 mg/kg i.p., 8 h, n = 3, read-out: Plasma Concentration, Mean): 2840 ng/mL
concentration at 8 h (ip, 100 mg/kg i.p., 8 h, read-out: Plasma Concentration, individual animals (1#, 2#, 3#)): 2760 ng/mL
concentration at 24 h (ip, 100 mg/kg i.p., 24 h): 121 ng/mL
concentration at 0 h (po, 100 mg/kg p.o., 0 h, n = 3, read-out: Plasma Concentration, Mean): 0 ng/mL
concentration at 0 h (po, 100 mg/kg p.o., 0 h, read-out: Plasma Concentration, individual animals (1#, 2#, 3#)): 0 ng/mL
concentration at 0.083 h (po, 100 mg/kg p.o., 0.083 h, n = 3, read-out: Plasma Concentration, Mean): 3430 ng/mL
concentration at 0.083 h (po, 100 mg/kg p.o., 0.083 h, read-out: Plasma Concentration, individual animals (1#, 2#, 3#)): 2210 ng/mL
concentration at 0.25 h (po, 100 mg/kg p.o., 0.25 h, n = 3, read-out: Plasma Concentration, Mean): 9130 ng/mL
concentration at 0.25 h (po, 100 mg/kg p.o., 0.25 h, read-out: Plasma Concentration, individual animals (1#, 2#, 3#)): 9690 ng/mL
concentration at 0.5 h (po, 100 mg/kg p.o., 0.5 h, n = 3, read-out: Plasma Concentration, Mean): 15500 ng/mL
concentration at 1 h (po, 100 mg/kg p.o., 1 h, n = 3, read-out: Plasma Concentration, Mean): 7050 ng/mL
concentration at 2 h (po, 100 mg/kg p.o., 2 h, n = 3, read-out: Plasma Concentration, Mean): 3150 ng/mL
concentration at 4 h (po, 100 mg/kg p.o., 4 h, n = 3, read-out: Plasma Concentration, Mean): 3090 ng/mL
concentration at 6 h (po, 100 mg/kg p.o., 6 h): 2470 ng/mL
concentration at 8 h (po, 100 mg/kg p.o., 8 h, n = 3, read-out: Plasma Concentration, Mean): 4010 ng/mL
concentration at 24 h (po, 100 mg/kg p.o., 24 h): 47.7 ng/mL
AUC(0-inf) (ip, 100 mg/kg i.p.): 201 µg·h/mL
AUC(0-t) (ip, 100 mg/kg i.p.): 201 µg·h/mL
Cmax (ip, 100 mg/kg i.p.): 61300 ng/mL
Tmax (ip, 100 mg/kg i.p.): 30 min
Vd/F (ip, 100 mg/kg i.p.): 2.35 L/kg
AUC(0-inf) (po, 100 mg/kg p.o.): 66 µg·h/mL
AUC(0-t) (po, 100 mg/kg p.o.): 65.7 µg·h/mL
Cmax (po, 100 mg/kg p.o.): 17500 ng/mL
Tmax (po, 100 mg/kg p.o.): 40 min
Vd/F (po, 100 mg/kg p.o.): 6.55 L/kg
